For 20 compounds, IC50 results are on record in patent publication US20230143612A1 (Arbutus Biopharma Corporation, priority 2020, published 2023).

Molecules are shown by their SMILES.

By IC50 is commonly meant the point on the concentration scale where inhibition reaches its midpoint. High values mean weaker potency in that assay, low ones greater potency in that assay.

Sequence of PD-L1 His protein / PD-1 Fc protein (Q9NZQ7 19-238 limits assumed): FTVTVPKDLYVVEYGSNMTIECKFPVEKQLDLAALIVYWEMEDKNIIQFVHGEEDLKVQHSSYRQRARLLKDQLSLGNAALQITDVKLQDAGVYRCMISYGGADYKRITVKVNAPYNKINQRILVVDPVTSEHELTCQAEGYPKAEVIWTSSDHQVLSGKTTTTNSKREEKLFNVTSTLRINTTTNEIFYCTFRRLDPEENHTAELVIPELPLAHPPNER

The assay addresses PD-L1 His protein / PD-1 Fc protein (Homo sapiens, UniProt Q9NZQ7). Put plainly: HTRF Assay (PD-1/PD-L1 interaction). The class given is binding. The following applies: PD-L1 His 6 nM, PD-1 Fc 6 nM. An outline of the steps:
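HTRF: PD-L1 His (6 nM final), compound (3-fold dilutions, 20 μM to 0.001 μM final) and PD-1 Fc (6 nM final) preincubated 15 min at room temperature. Anti-human IgG-XL665 and anti-6HIS Tb cryptate (mixed at 6.7 nM and 0.35 nM) then added for 1 h at room temperature before reading.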
(TR-FRET usually uses a lanthanide donor and a delayed reading to cut background.)
On to `COc1nc(-c2cccc(-c3cccc(-c4ccc5nc(CN[C@H]6C[C@H](O)C6)cc(=O)n5c4)c3Cl)c2Cl)ccc1CNC[C@@H]1CCC(=O)N1` [Example 221, 7-(2,2′-dichloro-3′-(6-methoxy-5-(((((S)-5-oxopyrrolidin-2-yl)methyl)amino)methyl)pyridin-2-yl)-[1,1′-biphenyl]-3-yl)-2-((((1r,3r)-3-hydroxycyclobutyl)amino)methyl)-4H-pyrido[1,2-a]pyrimidin-4-one], for which the IC50 turned out to be 0.6 nM.
Regarding `COc1nc(-c2cccc(-c3cccc(-c4ccc5nc(CN6CC(C)(O)C6)cc(=O)n5c4)c3Cl)c2Cl)ccc1CNC[C@@H]1CCC(=O)N1` [Example 222, (S)-7-(2,2′-dichloro-3′-(6-methoxy-5-((((5-oxopyrrolidin-2-yl)methyl)amino)methyl)pyridin-2-yl)-[1,1′-biphenyl]-3-yl)-2-((3-hydroxy-3-methylazetidin-1-yl)methyl)-4H-pyrido[1,2-a]pyrimidin-4-one], the IC50 is 0.2 nM.
`COc1nc(-c2cccc(-c3cccc(-c4ccn5c(=O)c(CNCCCC(F)(F)C(F)(F)F)cnc5c4)c3Cl)c2Cl)ccc1CNC[C@@H]1CCC(=O)N1` [Example 223, (S)-8-(2,2′-dichloro-3′-(6-methoxy-5-((((5-oxopyrrolidin-2-yl)-methyl)-amino)methyl)-pyridin-2-yl)-[1,1′-biphenyl]-3-yl)-3-(((4,4,5,5,5-pentafluoropentyl)amino)-methyl)-4H-pyrido[1,2-a]pyrimidin-4-one] yielded an IC50 of 10 nM.
`COc1nc(-c2cccc(-c3cccc(-c4ccn5c(=O)c(CNC6CCS(=O)(=O)CC6)cnc5c4)c3Cl)c2Cl)ccc1CNC[C@@H]1CCC(=O)N1` [Example 224, (S)-8-(2,2′-dichloro-3′-(6-methoxy-5-((((5-oxopyrrolidin-2-yl)-methyl)amino)-methyl)-pyridin-2-yl)-[1,1′-biphenyl]-3-yl)-3-(((1,1-dioxidotetrahydro-2H-thiopyran-4-yl)-amino)methyl)-4H-pyrido[1,2-a]-pyrimidin-4-one] showed an IC50 of 2.8 nM.
For `COc1nc(-c2cccc(-c3cccc(-c4cc(C)n5c(=O)c(CNC[C@H](C)O)cnc5c4)c3Cl)c2Cl)ccc1CNC[C@@H]1CCC(=O)N1` [Example 226, 8-(2,2′-Dichloro-3′-(6-methoxy-5-(((((S)-5-oxopyrrolidin-2-yl)methyl)amino)methyl)pyridin-2-yl)-[1,1′-biphenyl]-3-yl)-3-((((S)-2-hydroxypropyl)amino)methyl)-6-methyl-4H-pyrido[1,2-a]pyrimidin-4-one], the IC50 amounted to 15 nM.
The compound `COc1nc(-c2cccc(-c3cccc(-c4ccn5c(=O)c(CNC[C@@H]6CCC(=O)N6)c(Cl)nc5c4)c3Cl)c2Cl)ccc1CNC[C@@H]1CCC(=O)N1` [Example 227, 2-Chloro-8-(2,2′-dichloro-3′-(6-methoxy-5-(((((S)-5-oxopyrrolidin-2-yl)methyl)amino)methyl)pyridin-2-yl)-[1,1′-biphenyl]-3-yl)-3-(((((S)-5-oxopyrrolidin-2-yl)methyl)amino)methyl)-4H-pyrido[1,2-a]pyrimidin-4-one] had an IC50 of 12 nM.
`COc1cc2c(cc1CNC[C@@H]1CCC(=O)N1)CCC2=Cc1cccc(-c2cccc(-c3ccc(CNC[C@@H]4CCC(=O)N4)c(OC)n3)c2Cl)c1Cl` [Example 228, (S)-5-((((6-(2,2′-Dichloro-3′-((6-methoxy-5-(((((S)-5-oxopyrrolidin-2-yl)methyl)amino)methyl)-2,3-dihydro-1H-inden-1-ylidene)methyl)-[1,1′-biphenyl]-3-yl)-2-methoxypyridin-3-yl)methyl)amino)methyl)pyrrolidin-2-one] returned an IC50 of 3200 nM.
`COc1nc(-c2cccc(-c3cccc(-c4ccn5c(=O)c(CN[C@H]6C[C@@](C)(O)C6)c(C)nc5c4)c3Cl)c2Cl)ccc1CNC[C@@H]1CCC(=O)N1` [Example 229, 8-(2,2′-Dichloro-3′-(6-methoxy-5-(((((S)-5-oxopyrrolidin-2-yl)methyl)amino)methyl)pyridin-2-yl)-[1,1′-biphenyl]-3-yl)-3-((((1s,3s)-3-hydroxy-3-methylcyclobutyl)amino)methyl)-2-methyl-4H-pyrido[1,2-a]pyrimidin-4-one] showed an IC50 of 6.9 nM.
Consider `COc1nc(-c2cccc(-c3cccc(-c4ccn5c(=O)c(CN[C@H]6C[C@@](C)(O)C6)c(C)nc5c4)c3Cl)c2Cl)ccc1CN[C@H]1C[C@@](C)(O)C1` [Example 230, 8-(2,2′-Dichloro-3′-(5-((((1s,3s)-3-hydroxy-3-methylcyclobutyl)amino)methyl)-6-methoxypyridin-2-yl)-[1,1′-biphenyl]-3-yl)-3-((((1s,3s)-3-hydroxy-3-methylcyclobutyl)amino)methyl)-2-methyl-4H-pyrido[1,2-a]pyrimidin-4-one], for which inhibition was half-maximal at 98 nM (IC50).
`COC(=O)C[C@H](O)CNCc1ccc(-c2cccc(-c3cccc(-c4ccn5c(=O)c(CNC[C@@H](O)CC(=O)OC)cnc5c4)c3Cl)c2Cl)nc1OC` [Example 231, Methyl (3S)-4-[[6-[2-chloro-3-[2-chloro-3-[3-[[[(2S)-2-hydroxy-4-methoxy-4-oxo-butyl]amino]methyl]-4-oxo-pyrido[1,2-a]pyrimidin-8-yl]phenyl]phenyl]-2-methoxy-3-pyridyl]methylamino]-3-hydroxy-butanoate] came in with an IC50 of 120 nM.
For `COc1nc(-c2cccc(-c3cccc(-c4cc(F)c(CNC[C@@H]5CCC(=O)N5)c(OC)n4)c3Cl)c2Cl)ccc1CNC[C@@H]1CCC(=O)N1` [Example 232, (S)-5-((((6-(2,2′-dichloro-3′-(4-fluoro-6-methoxy-5-(((((S)-5-oxopyrrolidin-2-yl)methyl)amino)methyl)pyridin-2-yl)-[1,1′-biphenyl]-3-yl)-2-methoxypyridin-3-yl)methyl)amino)methyl)pyrrolidin-2-one] the value was 63 nM.
Compound `COc1nc(-c2cccc(-c3cccc(-c4ccn5c(=O)c(CNCC6(O)CCC6)cnc5c4)c3Cl)c2Cl)ccc1CNC[C@@H]1CCC(=O)N1` [Example 233, (S)-8-(2,2′-Dichloro-3′-(6-methoxy-5-((((5-oxopyrrolidin-2-yl)methyl)amino)methyl)pyridin-2-yl)-[1,1′-biphenyl]-3-yl)-3-((((1-hydroxycyclobutyl)methyl)amino)methyl)-4H-pyrido[1,2-a]pyrimidin-4-one] came in with an IC50 of 0.2 nM.
With `COc1nc(-c2cccc(-c3cccc(-c4ccn5c(=O)c(CNCC6(O)CC6)cnc5c4)c3Cl)c2Cl)ccc1CNC[C@@H]1CCC(=O)N1` [Example 234, (S)-8-(2,2′-Dichloro-3′-(6-methoxy-5-((((5-oxopyrrolidin-2-yl)methyl)amino)methyl)pyridin-2-yl)-[1,1′-biphenyl]-3-yl)-3-((((1-hydroxycyclopropyl)methyl)amino)methyl)-4H-pyrido[1,2-a]pyrimidin-4-one], it took 0.1 nM to reach half-maximal inhibition (IC50).
For `COc1nc(-c2cccc(-c3cccc(-c4cc(F)c(CNC[C@@H]5CCC(=O)N5)c(OC)n4)c3Cl)c2Cl)cc(F)c1CNC[C@@H]1CCC(=O)N1` [Example 236, (5S,5′S)-5,5′-(((((2,2′-dichloro-[1,1′-biphenyl]-3,3′-diyl)bis(4-fluoro-2-methoxypyridine-6,3-diyl))bis(methylene))bis(azanediyl))bis(methylene))bis(pyrrolidin-2-one)] the value was 1.2 nM; for `NC1(Cc2ccc(-c3cccc(-c4cccc(-c5ccn6c(=O)c(CNC[C@@H]7CCC(=O)N7)cnc6c5)c4Cl)c3Cl)cc2)CC1` [Example 237, (S)-8-(4″-((1-Aminocyclopropyl)methyl)-2,2′-dichloro-[1,1′:3′,1″-terphenyl]-3-yl)-3-((((5-oxopyrrolidin-2-yl)methyl)amino)methyl)-4H-pyrido[1,2-a]pyrimidin-4-one], 900 nM; for `COc1nc(-c2cccc(-c3cccc(-c4ccn5c(=O)c(CNC[C@@H](O)CC(N)=O)cnc5c4)c3Cl)c2Cl)ccc1CNC[C@@H]1CCC(=O)N1` [Example 238, (3S)-4-[[8-[2-chloro-3-[2-chloro-3-[6-methoxy-5-[[[(2S)-5-oxopyrrolidin-2-yl]methylamino]methyl]-2-pyridyl]phenyl]phenyl]-4-oxo-pyrido[1,2-a]pyrimidin-3-yl]methylamino]-3-hydroxy-butanamide], 0.1 nM.
Under `COc1nc(-c2cccc(-c3cccc(-c4ccc5nn(CCO)c(=O)n5c4)c3Cl)c2Cl)ccc1CNC[C@@H]1CCC(=O)N1` [Example 239, (S)-6-(2,2′-Dichloro-3′-(6-methoxy-5-((((5-oxopyrrolidin-2-yl)methyl)amino)methyl)pyridin-2-yl)-[1,1′-biphenyl]-3-yl)-2-(2-hydroxyethyl)-[1,2,4]triazolo[4,3-a]pyridin-3(2H)-one] stands 0.1 nM; under `COc1nc(-c2cccc(-c3cccc(-c4nnc5n4CCNC5)c3Cl)c2Cl)ccc1CNC[C@@H]1CCC(=O)N1` [Example 240, (S)-5-((((6-(2,2′-Dichloro-3′-(5,6,7,8-tetrahydro-[1,2,4]triazolo[4,3-a]pyrazin-3-yl)-[1,1′-biphenyl]-3-yl)-2-methoxypyridin-3-yl)methyl)amino)methyl)pyrrolidin-2-one], 350 nM; under `COc1nc(-c2cccc(-c3cccc(-c4cnc5sc(N6CCN(CCO)CC6)nn45)c3Cl)c2Cl)ccc1CNC[C@@H]1CCC(=O)N1` [Example 241, (S)-5-((((6-(2,2′-Dichloro-3′-(2-(4-(2-hydroxyethyl)piperazin-1-yl)imidazo[2,1-b][1,3,4]thiadiazol-5-yl)-[1,1′-biphenyl]-3-yl)-2-methoxypyridin-3-yl)methyl)amino)methyl)pyrrolidin-2-one], 900 nM.
Turning to `COc1nc(-c2cccc(-c3cccc(-c4nnc5n4CCN(CCO)C5)c3Cl)c2Cl)ccc1CNC[C@@H]1CCC(=O)N1` [Example 242, (S)-5-((((6-(2,2′-Dichloro-3′-(7-(2-hydroxyethyl)-5,6,7,8-tetrahydro-[1,2,4]triazolo[4,3-a]pyrazin-3-yl)-[1,1′-biphenyl]-3-yl)-2-methoxypyridin-3-yl)methyl)amino)methyl)pyrrolidin-2-one], half-maximal inhibition (IC50) required 1700 nM.
